Source: ChEMBL document CHEMBL4610087, “Swinhopeptolides A and B: Cyclic Depsipeptides from the Sponge Theonella swinhoei That Inhibit Ras/Raf Interaction” (J Nat Prod, 2020)

Test: Inhibition of Ras-Raf (unknown origin) protein-protein interaction incubated for 4 hrs by cell based-BRET assay
Settings: Homo sapiens

| IC50 | SMILES |
| --- | --- |
| 5.8 µM | C/C=C(\NC(=O)[C@@H](CO)NC(=O)[C@@](C)(O)[C@H](O)/C=C\C(C)=C\[C@H](C)CC)C(=O)N[C@H](C(=O)N[C@H](C(=O)N[C@H]1C(=O)N[C@H](COC)C(=O)NCC(=O)N[C@@H](C)C(=O)N(C)[C@@H]([C@@H](C)O)C(=O)N[C@H]([C@H](OC)c2ccc(O)cc2)C(=O)N2CCC[C@H]2C(=O)O[C@@H]1C(C)C)[C@@H](C)[C@@H](C)C(N)=O)[C@H](C)N |
| 8.5 µM | C/C=C(\NC(=O)[C@@H](CO)NC(=O)/C(C)=C/C=C/C(C)=C/C(C)CC)C(=O)N[C@H](C(=O)N[C@H](C(=O)N[C@H]1C(=O)N[C@H](COC)C(=O)NCC(=O)N[C@@H](C)C(=O)N(C)[C@@H]([C@@H](C)O)C(=O)N[C@H]([C@H](OC)c2ccc(O)cc2)C(=O)N2CCC[C@H]2C(=O)O[C@@H]1C(C)C)[C@@H](C)[C@@H](C)C(N)=O)[C@H](C)N (some centres not stated) |
